According to ChEMBL document CHEMBL5505970 (J Med Chem, 2024):
Activity calls are given as the source filed them. The calls are words filed in the database; no cut-off is given here.

What was measured:
[1] = Toxicity in NOD-SCID mouse xenografted with human Granta-519 cells assessed as reduction in early stage erythroblasts in bone marrow at 10 mg/kg, po qd for 1 day co-administered with PARP inhibitor, niraparib by flow cytometry; assay type: organism-based; settings: in vivo, 24 h
[2] = Toxicity in NOD-SCID mouse xenografted with human Granta-519 cells assessed as reduction in late stage erythroblasts at 10 mg/kg, po qd for 1 day by flow cytometry; assay type: organism-based; settings: in vivo, 24 h
[3] = Toxicity in NOD-SCID mouse xenografted with human Granta-519 cells assessed as red blood cells at 30 mg/kg, po qd for 3 days and 4 days off treatment and measured on day 14; assay type: organism-based; settings: in vivo, 72 h, time 3 day
[4] = Toxicity in NOD-SCID mouse xenografted with human Granta-519 cells assessed as early stage erythroblasts in bone marrow at 10 mg/kg, po qd for 3 days and measured at 4 days after treatment cessation by flow cytometry; assay type: organism-based; settings: in vivo, 72 h, time 3 day
[5] = Toxicity in NOD-SCID mouse xenografted with human Granta-519 cells assessed as reticulocytes count at 5 mg/kg, po qd for 3 days and 4 days off intermittent dosing for 3 cycles co-administered with PARP inhibitor, niraparib from day 3 to day 6 in each cycle and measured on day 21; assay type: organism-based; settings: in vivo, 504 h, time 21 day
[6] = Clearance in rat liver microsomes at 1 uM in presence of NADPH by ESI/LC-MS/MS analysis; assay type: ADME, Microsome; settings: read-out: CLH
[7] = Toxicity in NOD-SCID mouse xenografted with human Granta-519 cells assessed as red blood cells count at 5 mg/kg, po qd for 3 days and 4 days off intermittent dosing for 3 cycles co-administered with PARP inhibitor, niraparib from day 3 to day 6 in each cycle and measured on day 21; assay type: organism-based; settings: in vivo, 504 h, time 21 day
[8] = Clearance in mouse liver microsomes at 1 uM in presence of NADPH by ESI/LC-MS/MS analysis; assay type: ADME, Microsome; settings: read-out: CLH
[9] = biological target: Serine/threonine-protein kinase SMG1 (Homo sapiens) (UniProt Q96Q15); assay: Inhibition of SMG1 in human Jurkat cell lysates at 0.03 to 0.3 uM in presence of biotinylated ADP by KiNativ profiling based mass spectrometry; assay type: subcellular; settings: dose 0.03-0.3 µM
[10] = Clearance in dog liver microsomes at 1 uM in presence of NADPH by ESI/LC-MS/MS analysis; assay type: ADME, Canis lupus familiaris, Microsome; settings: read-out: CLH
Granta-519 = assay: Antitumor activity against human Granta-519 cells xenografted in NOD-SCID mouse assessed as decrease in tumor volume at 25 mg/kg, po qd for 5 days and measured at 2 days after drug treatment cessation; assay type: functional, organism-based; settings: time 5.0 day
[11] = Clearance in Beagle dog at 0.5 mg/kg, iv formulated as a solution in 10% PG:18% PEG400 in water or 5% NMP:95% (10% VitE TPGS in water) measured for 24 hrs by reverse phase liquid chromatography coupled to mass spectrometry; assay type: ADME, organism-based, Canis lupus familiaris; settings: in vivo
[12] = Toxicity in NOD-SCID mouse xenografted with human Granta-519 cells assessed as early stage erythroblasts at 30 mg/kg, po qd for 3 days and measured at 2 days after treatment discontinuation by flow cytometry; assay type: organism-based; settings: in vivo, 72 h, time 3 day
[13] = Clearance in mouse hepatocytes at 1 uM measured per million cells by ESI/LC-MS/MS analysis; assay type: ADME, cell-based, Hepatocyte; settings: read-out: CLH
[14] = Oral bioavailability in CD-1 mouse at 20 mg/kg formulated as suspension in 0.5% methocel and 0.02% SLS in 50 mM citrate buffer measured for 24 hrs by reverse phase liquid chromatography coupled to mass spectrometry; assay type: ADME, organism-based; settings: in vivo
[15] = Toxicity in BALB/c mouse assessed as reticulocytes in bone marrow at 10 mg/kg, po qd for 3 days and measured at 4 days after treatment discontinuation; assay type: organism-based; settings: in vivo, 72 h, time 3 day
[16] = Oral bioavailability in Sprague-Dawley rat at 20 mg/kg formulated as suspension in 0.5% methocel and 0.02% SLS measured for 24 hrs by reverse phase liquid chromatography coupled to mass spectrometry; assay type: ADME, organism-based; settings: in vivo
[17] = biological target: Serine-protein kinase ATM (Homo sapiens, UniProt Q13315); assay: Inhibition of ATM in human Jurkat cell lysates at 0.3 uM in presence of biotinylated ADP by KiNativ profiling based mass spectrometry; assay type: subcellular
[18] = Toxicity in BALB/c mouse assessed as late stage erythroblasts in bone marrow at 10 mg/kg, po qd for 3 days and 4 days off intermittent dosing for 4 cycles by flow cytometry; assay type: organism-based; settings: in vivo, 672 h, time 28 day
[19] = biological target: Phosphatidylinositol 4-phosphate 3-kinase C2 domain-containing subunit beta (Homo sapiens) (UniProt O00750); assay: Inhibition of PIK3C2B in human Jurkat cell lysates at 0.3 uM in presence of biotinylated ADP by KiNativ profiling based mass spectrometry; assay type: subcellular
[20] = Clearance in Sprague-Dawley rat at 1 mg/kg, iv formulated as a solution in 10% PG:18% PEG400 in water or 5% NMP:95% (10% VitE TPGS in water) measured for 24 hrs by reverse phase liquid chromatography coupled to mass spectrometry; assay type: ADME, organism-based; settings: in vivo
[21] = Toxicity in NOD-SCID mouse xenografted with human Granta-519 cells assessed as changes in body weight at 10 mg/kg, po qd for 7 days; assay type: organism-based; settings: in vivo, 168 h, time 7 day
[22] = Clearance in CD-1 mouse at 1 mg/kg, iv formulated as a solution in 10% PG:18% PEG400 in water or 5% NMP:95% (10% VitE TPGS in water) measured for 24 hrs by reverse phase liquid chromatography coupled to mass spectrometry; assay type: ADME, organism-based; settings: in vivo
[23] = Toxicity in NOD-SCID mouse xenografted with human Granta-519 cells assessed as changes in body weight at 25 mg/kg, po qd for 5 days and measured at 2 days after drug treatment cessation; assay type: organism-based; settings: in vivo, 120 h, time 5 day
[24] = biological target: DNA-dependent protein kinase catalytic subunit (Homo sapiens, UniProt P78527); assay: Inhibition of DNA-PK in human Jurkat cell lysates at 0.3 uM in presence of biotinylated ADP by KiNativ profiling based mass spectrometry; assay type: subcellular
[25] = Toxicity in BALB/c mouse assessed as red blood cells in bone marrow at 10 mg/kg, po qd for 3 days and measured at 4 days after treatment discontinuation; assay type: organism-based; settings: in vivo, 72 h, time 3 day
[26] = biological target: Serine/threonine-protein kinase mTOR (Homo sapiens, UniProt P42345); assay: Inhibition of mTOR in human Jurkat cell lysates at 0.03 to 0.3 uM in presence of biotinylated ADP by KiNativ profiling based mass spectrometry; assay type: subcellular; settings: dose 0.03-0.3 µM
[27] = Clearance in monkey liver microsomes at 1 uM in presence of NADPH by ESI/LC-MS/MS analysis; assay type: ADME, Macaca mulatta, Microsome; settings: rhesus monkey, read-out: CLH
[28] = Toxicity in BALB/c mouse assessed as reduction in total viable cell counts in femur at 10 mg/kg, po qd for 3 days; assay type: organism-based; settings: in vivo, 72 h, time 3 day
[29] = Toxicity in NOD-SCID mouse xenografted with human Granta-519 cells assessed as early stage erythroblasts in bone marrow at 10 mg/kg, po qd for 3 days co-administered with PARP inhibitor, niraparib and measured at 2 days after treatment cessation by flow cytometry; assay type: organism-based; settings: in vivo, 72 h, time 3 day

Sequence of Serine/threonine-protein kinase SMG1 (Homo sapiens) (Q96Q15 whole entry): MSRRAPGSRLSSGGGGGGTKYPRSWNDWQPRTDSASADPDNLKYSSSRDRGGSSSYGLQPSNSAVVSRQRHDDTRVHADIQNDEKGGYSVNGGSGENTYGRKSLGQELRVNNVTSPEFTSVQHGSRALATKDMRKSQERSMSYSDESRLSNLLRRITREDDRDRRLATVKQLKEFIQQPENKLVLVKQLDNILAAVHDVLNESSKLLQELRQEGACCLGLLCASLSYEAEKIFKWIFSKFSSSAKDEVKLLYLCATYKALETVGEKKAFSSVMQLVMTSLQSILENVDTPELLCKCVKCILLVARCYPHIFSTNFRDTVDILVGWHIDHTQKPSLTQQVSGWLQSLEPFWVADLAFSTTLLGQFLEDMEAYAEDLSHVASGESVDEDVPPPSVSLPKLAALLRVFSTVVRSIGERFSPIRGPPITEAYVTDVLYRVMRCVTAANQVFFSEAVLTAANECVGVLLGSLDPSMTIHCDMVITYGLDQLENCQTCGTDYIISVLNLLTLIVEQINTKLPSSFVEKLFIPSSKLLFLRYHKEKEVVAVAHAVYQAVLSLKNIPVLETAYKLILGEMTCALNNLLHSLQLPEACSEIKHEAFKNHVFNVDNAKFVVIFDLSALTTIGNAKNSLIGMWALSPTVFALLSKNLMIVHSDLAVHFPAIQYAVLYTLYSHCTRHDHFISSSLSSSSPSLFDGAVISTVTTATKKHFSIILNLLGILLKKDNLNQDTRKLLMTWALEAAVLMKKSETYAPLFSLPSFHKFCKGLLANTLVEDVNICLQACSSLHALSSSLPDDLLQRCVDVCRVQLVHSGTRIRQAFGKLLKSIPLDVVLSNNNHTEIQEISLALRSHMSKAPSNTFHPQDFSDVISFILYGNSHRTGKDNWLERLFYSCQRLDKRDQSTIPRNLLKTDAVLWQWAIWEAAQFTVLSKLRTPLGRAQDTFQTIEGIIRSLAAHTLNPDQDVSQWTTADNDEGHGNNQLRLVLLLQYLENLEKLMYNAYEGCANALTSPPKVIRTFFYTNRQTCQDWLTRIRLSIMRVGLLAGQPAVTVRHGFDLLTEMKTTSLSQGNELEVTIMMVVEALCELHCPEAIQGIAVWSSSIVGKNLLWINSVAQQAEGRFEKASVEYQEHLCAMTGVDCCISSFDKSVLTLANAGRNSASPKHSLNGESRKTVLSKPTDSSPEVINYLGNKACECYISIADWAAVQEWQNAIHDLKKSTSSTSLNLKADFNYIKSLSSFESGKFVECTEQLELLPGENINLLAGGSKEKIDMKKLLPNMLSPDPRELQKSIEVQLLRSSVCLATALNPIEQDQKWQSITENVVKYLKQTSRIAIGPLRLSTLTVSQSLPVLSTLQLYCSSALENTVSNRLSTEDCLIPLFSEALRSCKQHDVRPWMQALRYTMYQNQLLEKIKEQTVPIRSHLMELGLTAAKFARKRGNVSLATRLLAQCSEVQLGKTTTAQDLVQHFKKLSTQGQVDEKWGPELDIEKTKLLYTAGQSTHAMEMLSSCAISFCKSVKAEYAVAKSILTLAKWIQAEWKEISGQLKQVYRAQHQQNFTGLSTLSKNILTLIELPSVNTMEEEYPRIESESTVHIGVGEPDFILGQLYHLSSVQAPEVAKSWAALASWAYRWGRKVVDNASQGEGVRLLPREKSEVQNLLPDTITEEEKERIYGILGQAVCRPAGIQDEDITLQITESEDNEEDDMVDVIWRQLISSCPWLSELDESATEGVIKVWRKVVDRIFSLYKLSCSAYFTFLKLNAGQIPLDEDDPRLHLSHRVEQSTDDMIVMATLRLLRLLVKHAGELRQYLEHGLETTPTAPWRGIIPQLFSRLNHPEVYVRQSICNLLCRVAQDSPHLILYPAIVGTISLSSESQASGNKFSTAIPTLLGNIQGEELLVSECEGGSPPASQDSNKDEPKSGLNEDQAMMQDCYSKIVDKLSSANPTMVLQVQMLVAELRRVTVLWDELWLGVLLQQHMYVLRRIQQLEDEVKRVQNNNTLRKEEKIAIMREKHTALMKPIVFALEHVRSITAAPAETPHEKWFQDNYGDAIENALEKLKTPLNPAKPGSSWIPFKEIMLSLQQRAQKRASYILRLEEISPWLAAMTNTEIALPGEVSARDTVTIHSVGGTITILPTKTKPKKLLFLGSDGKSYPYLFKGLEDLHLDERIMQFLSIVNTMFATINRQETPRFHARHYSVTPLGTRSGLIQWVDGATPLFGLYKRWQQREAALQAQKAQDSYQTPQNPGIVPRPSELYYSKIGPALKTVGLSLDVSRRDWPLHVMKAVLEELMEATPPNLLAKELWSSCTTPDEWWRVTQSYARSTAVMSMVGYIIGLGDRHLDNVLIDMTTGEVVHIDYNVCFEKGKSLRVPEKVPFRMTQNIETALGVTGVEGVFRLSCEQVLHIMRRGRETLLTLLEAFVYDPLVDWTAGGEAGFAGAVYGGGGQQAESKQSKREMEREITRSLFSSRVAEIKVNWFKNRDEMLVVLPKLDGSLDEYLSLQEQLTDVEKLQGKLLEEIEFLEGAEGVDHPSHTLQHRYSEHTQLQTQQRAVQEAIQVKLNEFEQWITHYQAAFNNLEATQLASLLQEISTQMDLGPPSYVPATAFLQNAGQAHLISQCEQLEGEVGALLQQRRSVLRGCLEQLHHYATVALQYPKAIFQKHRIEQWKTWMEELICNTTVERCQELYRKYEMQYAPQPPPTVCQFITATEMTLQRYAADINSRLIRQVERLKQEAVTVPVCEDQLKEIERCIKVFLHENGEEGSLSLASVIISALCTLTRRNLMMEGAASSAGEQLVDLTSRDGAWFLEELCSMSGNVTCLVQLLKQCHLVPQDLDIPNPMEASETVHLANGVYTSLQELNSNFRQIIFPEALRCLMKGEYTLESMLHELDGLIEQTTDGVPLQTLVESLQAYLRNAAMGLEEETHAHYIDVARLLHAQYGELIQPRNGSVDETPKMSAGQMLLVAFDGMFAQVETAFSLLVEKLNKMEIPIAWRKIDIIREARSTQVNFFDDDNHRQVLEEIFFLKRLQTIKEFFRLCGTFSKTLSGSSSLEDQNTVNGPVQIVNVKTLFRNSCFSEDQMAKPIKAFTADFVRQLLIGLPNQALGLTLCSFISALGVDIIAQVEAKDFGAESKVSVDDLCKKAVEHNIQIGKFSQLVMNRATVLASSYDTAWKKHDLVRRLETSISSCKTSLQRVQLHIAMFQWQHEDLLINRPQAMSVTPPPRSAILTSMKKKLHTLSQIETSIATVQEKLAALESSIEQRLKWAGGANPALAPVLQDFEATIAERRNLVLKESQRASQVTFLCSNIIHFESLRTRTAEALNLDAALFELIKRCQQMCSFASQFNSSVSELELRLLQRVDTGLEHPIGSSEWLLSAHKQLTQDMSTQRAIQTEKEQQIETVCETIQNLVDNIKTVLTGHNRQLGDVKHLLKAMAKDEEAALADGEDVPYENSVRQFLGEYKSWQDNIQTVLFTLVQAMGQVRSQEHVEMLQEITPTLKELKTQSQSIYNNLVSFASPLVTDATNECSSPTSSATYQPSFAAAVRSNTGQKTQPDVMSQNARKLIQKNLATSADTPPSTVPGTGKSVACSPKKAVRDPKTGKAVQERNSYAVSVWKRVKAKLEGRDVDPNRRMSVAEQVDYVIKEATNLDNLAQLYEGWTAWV

- microsomal CLint at 1 µM [6]: 97 µL/min/mg
- microsomal CLint at 1 µM [8]: 25 µL/min/mg
- inhibition [9]: Active
- microsomal CLint at 1 µM [10]: < 11.6 µL/min/mg
- clearance [11]: 10.1 mL/min/kg
- hepatocyte CLint at 1 µM [13]: 11 µL/min/1e6 cells
- bioavailability [14]: 72%
- bioavailability [16]: 45%
- inhibition [17]: Active
- inhibition [19]: Active
- clearance [20]: 22 mL/min/kg
- clearance [22]: 1.2 mL/min/kg
- inhibition [24]: Active
- inhibition [26]: Active
- microsomal CLint at 1 µM [27]: 26 µL/min/mg
SMILES: C[C@@H]1COCCN1c1cc([C@]2(O)C[C@H]3CC[C@@H](C2)O3)c2cnn(-c3cc[nH]n3)c2n1 [CAMONSERTIB]
- Activity [1]: Toxic
- Activity [2]: Toxic
- Activity [3]: Non-Toxic
- Activity [4]: Non-Toxic
- Activity [5]: Non-Toxic
- Activity [7]: Non-Toxic
- Activity (Granta-519): Active
- Activity [12]: Non-Toxic
- Activity [15]: Non-Toxic
- Activity [18]: Non-Toxic
- Activity [21]: Non-Toxic
- Activity [23]: Non-Toxic
- Activity [25]: Non-Toxic
- Activity [28]: Toxic
- Activity [29]: Non-Toxic
